Laboratory results reported in patent publication US12612412B2, “Antiviral heterocyclic compounds” (Enanta Pharmaceuticals, Inc., priority 2021, dated 2026).

Tested on: genotype A, "Long" strain RSV
Assay: RSV-A assay (CPE protection in Hep-2 cells, ATPlite readout)
Assay type: cell-based, Human respiratory syncytial virus (HRSV)
Settings: human respiratory syncytial virus, genotype A “Long” strain RSV, MOI 0.1, CPE protection, read-out: Human RSV-A (“Long”)
Outline: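 Hep-2 cells (8,000/well) infected with RSV Long strain at MOI 0.1 in the presence of 2-fold compound dilutions in duplicate. After 5 days, cell viability measured by ATPlite luminescence, normalized between virus-only and uninfected cell controls; EC50 reported.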

SMILES	EC50 [nM]
COc1cc(C(=O)NC[C@](O)(c2cc3c(c(-c4ccc(F)cc4)n2)OC[C@@]3(CF)C(N)=O)C(F)(F)F)cn2cc(C3CC3)nc12 [Example 291]	> 200
COc1cc(C(=O)NC[C@](O)(c2cc3c(c(-c4ccc(F)cc4)n2)OC[C@]3(CF)C(N)=O)C(F)(F)F)cn2cc(C3CC3)nc12 [Example 292]	< 200
C[C@@H](O)COc1ccc(C(=O)NC[C@](O)(c2cc3c(c(-c4ccc(F)cc4)n2)OC[C@@]3(CF)C(N)=O)C(F)(F)F)cc1OC1CC1 [Example 293]	> 200
C[C@@H](O)COc1ccc(C(=O)NC[C@](O)(c2cc3c(c(-c4ccc(F)cc4)n2)OC[C@]3(CF)C(N)=O)C(F)(F)F)cc1OC1CC1 [Example 294]	< 200
COc1cc(C(=O)NC[C@](O)(c2cc3c(c(-c4ccc(F)cc4)n2)OCC3(CF)C(N)=O)C(F)(F)F)cc2cn(C3CC3)nc12 (stereo partly shown) [Example 295]	< 200
NC(=O)[C@]1(CF)COc2c1cc([C@@](O)(CNC(=O)c1cc(OC3CC3)c3ncccc3c1)C(F)(F)F)nc2-c1ccc(F)cc1 [Example 296]	> 200
NC(=O)[C@@]1(CF)COc2c1cc([C@@](O)(CNC(=O)c1cc(OC3CC3)c3ncccc3c1)C(F)(F)F)nc2-c1ccc(F)cc1 [Example 297]	< 200
COc1cc(C(=O)NC[C@](O)(c2cc3c(c(-c4ccc(F)cc4)n2)OC[C@@]3(CF)C(N)=O)C(F)(F)F)ccc1OC1CC1 [Example 298]	> 200
COc1cc(C(=O)NC[C@](O)(c2cc3c(c(-c4ccc(F)cc4)n2)OC[C@]3(CF)C(N)=O)C(F)(F)F)ccc1OC1CC1 [Example 299]	< 200
COc1cc(C(=O)NC[C@](O)(c2cc3c(c(-c4ccc(F)cc4)n2)OC[C@]3(C)C(N)=O)C2CC2)cc2cn(C3CC3)nc12 [Example 302]	< 200
COc1cc(C(=O)NC[C@](O)(c2cc3c(c(-c4ccc(F)cc4)n2)OC[C@]3(C)C(N)=O)C2CC2)cc2cn(C(F)F)nc12 [Example 303]	< 200
CCS(=O)(=O)c1ccc(-c2nc([C@@](O)(CNC(=O)c3cc(F)c4nc(N)sc4c3)C(F)(F)F)cc3c2OC[C@]3(C)C(N)=O)cc1 [Example 311]	> 200
COc1cc(C(=O)NC[C@](O)(c2cc3c(c(-c4ccc(F)cc4)n2)OC[C@]3(C)C(N)=O)C2CC2)ccc1OC1CC1 [Example 316]	< 200
C[C@@H](O)COc1ccc(C(=O)NC[C@](O)(c2cc3c(c(-c4ccc(F)cc4)n2)OC[C@]3(C)C(N)=O)C2CC2)cc1OC1CC1 [Example 317]	< 200
C[C@]1(C(N)=O)COc2c1cc([C@@](O)(CNC(=O)c1ccc3[nH]c(=O)oc3c1)C(F)(F)F)nc2-c1ccc(F)cc1 [Example 318]	< 200
COc1cc(C(=O)NC[C@](O)(c2cc3c(c(-c4ccc(F)cc4)n2)OC[C@]3(C)C(N)=O)C2CC2)cc2cc(Cl)c(C)nc12 [Example 319]	< 200
COc1cc(C(=O)NC[C@](O)(c2cc3c(c(-c4ccc(F)cc4)n2)OC[C@]3(C)C(N)=O)C2CC2)cn2cc(C3CC3)nc12 [Example 320]	< 200
COc1cc2cc(C(=O)NC[C@](O)(c3cc4c(c(-c5ccc(F)cc5)n3)OC[C@]4(C)C(N)=O)C(F)(F)F)ccc2nc1Cl [Example 325]	< 200
COc1cc2cc(C(=O)NC[C@](O)(c3cc4c(c(-c5ccc(F)cc5)n3)OC[C@]4(C)C(N)=O)C(F)(F)F)ccc2nc1C [Example 326]	< 200
Cc1cnc2c(NC(=O)N(C)C3CC3)cc(C(=O)NC[C@](O)(c3cc4c(c(-c5ccc(F)cc5)n3)OC[C@]4(C)C(N)=O)C(F)(F)F)cc2c1 [Example 328]	< 200

SMILES	EC50 [nM]
[2H]C([2H])([2H])NC(=O)Nc1cc(C(=O)NC[C@](O)(c2cc3c(c(-c4ccc(F)cc4)n2)OC[C@]3(C)C(N)=O)C(F)(F)F)cc2ccc(C)nc12 [Example 330]	> 200
C[C@]1(C(N)=O)COc2c1cc([C@@](O)(CNC(=O)c1cc(OC3CC3)n3nc(C4CC4)cc3c1)C1CC1)nc2-c1ccc(F)cc1 [Example 331]	< 200
C[C@]1(C(N)=O)COc2c1cc([C@@](O)(CNC(=O)c1ccn3nc(C4CC4)cc3c1)C1CC1)nc2-c1ccc(F)cc1 [Example 332]	< 200
C[C@]1(C(N)=O)COc2c1cc([C@@](O)(CNC(=O)c1cnc3[nH]ccc3c1Cl)C(F)(F)F)nc2-c1ccc(F)cc1 [Example 333]	> 200
Cc1ncccc1C(=O)NC[C@](O)(c1cc2c(c(-c3ccc(F)cc3)n1)OC[C@]2(C)C(N)=O)C(F)(F)F [Example 334]	> 200
C[C@]1(C(N)=O)COc2c1cc([C@@](O)(CNC(=O)c1nc3cccnc3s1)C(F)(F)F)nc2-c1ccc(F)cc1 [Example 335]	> 200
COc1ccc2cc(C(=O)NC[C@](O)(c3cc4c(c(-c5ccc(F)cc5)n3)OC[C@]4(C)C(N)=O)C(F)(F)F)n(C)c2c1 [Example 336]	> 200
Cn1cc(C(=O)NC[C@](O)(c2cc3c(c(-c4ccc(F)cc4)n2)OC[C@]3(C)C(N)=O)C(F)(F)F)nn1 [Example 337]	> 200
C[C@]1(C(N)=O)COc2c1cc([C@@](O)(CNC(=O)c1cc3ccc(C(F)(F)F)cc3[nH]1)C(F)(F)F)nc2-c1ccc(F)cc1 [Example 338]	> 200
CC(C)Oc1ccc2cc(C(=O)NC[C@](O)(c3cc4c(c(-c5ccc(F)cc5)n3)OC[C@]4(C)C(N)=O)C(F)(F)F)[nH]c2c1 [Example 339]	> 200
COC(=O)Nc1cc(C(=O)NC[C@](O)(c2cc3c(c(-c4ccc(F)cc4)n2)OC[C@]3(C)C(N)=O)C(F)(F)F)ccc1F [Example 340]	< 200
C[C@]1(C(N)=O)COc2c1cc([C@@](O)(CNC(=O)c1cc3c(cc1Cl)NC(=O)C3)C(F)(F)F)nc2-c1ccc(F)cc1 [Example 341]	> 200
C[C@]1(C(N)=O)COc2c1cc([C@@](O)(CNC(=O)c1cnoc1C1CC1)C(F)(F)F)nc2-c1ccc(F)cc1 [Example 342]	> 200
C[C@]1(C(N)=O)COc2c1cc([C@@](O)(CNC(=O)c1cnc3cc[nH]c3c1)C(F)(F)F)nc2-c1ccc(F)cc1 [Example 343]	> 200
Cc1cc(C(=O)NC[C@](O)(c2cc3c(c(-c4ccc(F)cc4)n2)OC[C@]3(C)C(N)=O)C(F)(F)F)ccn1 [Example 344]	< 200
C[C@]1(C(N)=O)COc2c1cc([C@@](O)(CNC(=O)c1c[nH]c3cc(Cl)ccc13)C(F)(F)F)nc2-c1ccc(F)cc1 [Example 345]	> 200
C[C@]1(C(N)=O)COc2c1cc([C@@](O)(CNC(=O)c1ccc3ccsc3c1)C(F)(F)F)nc2-c1ccc(F)cc1 [Example 346]	> 200
C[C@]1(C(N)=O)COc2c1cc([C@@](O)(CNC(=O)c1c[nH]c3ncc(C(F)(F)F)cc13)C(F)(F)F)nc2-c1ccc(F)cc1 [Example 347]	> 200
C[C@]1(C(N)=O)COc2c1cc([C@@](O)(CNC(=O)c1ccc(F)c3cc[nH]c13)C(F)(F)F)nc2-c1ccc(F)cc1 [Example 348]	< 200
C[C@]1(C(N)=O)COc2c1cc([C@@](O)(CNC(=O)c1cc[nH]c1)C(F)(F)F)nc2-c1ccc(F)cc1 [Example 349]	> 200

SMILES	EC50 [nM]
C[C@]1(C(N)=O)COc2c1cc([C@@](O)(CNC(=O)c1c[nH]c3c(Cl)cccc13)C(F)(F)F)nc2-c1ccc(F)cc1 [Example 350]	> 200
C[C@]1(C(N)=O)COc2c1cc([C@@](O)(CNC(=O)c1c[nH]c3nccnc13)C(F)(F)F)nc2-c1ccc(F)cc1 [Example 351]	> 200
C[C@]1(C(N)=O)COc2c1cc([C@@](O)(CNC(=O)c1c[nH]c3ccccc13)C(F)(F)F)nc2-c1ccc(F)cc1 [Example 352]	> 200
C[C@]1(C(N)=O)COc2c1cc([C@@](O)(CNC(=O)c1c[nH]c3ncc(F)cc13)C(F)(F)F)nc2-c1ccc(F)cc1 [Example 353]	> 200
Cc1cc(C(=O)NC[C@](O)(c2cc3c(c(-c4ccc(F)cc4)n2)OC[C@]3(C)C(N)=O)C(F)(F)F)n[nH]1 [Example 355]	> 200
Cc1oncc1C(=O)NC[C@](O)(c1cc2c(c(-c3ccc(F)cc3)n1)OC[C@]2(C)C(N)=O)C(F)(F)F [Example 356]	> 200
C[C@]1(C(N)=O)COc2c1cc([C@@](O)(CNC(=O)c1ccc3sccc3c1)C(F)(F)F)nc2-c1ccc(F)cc1 [Example 357]	> 200
Cc1ccn2ncc(C(=O)NC[C@](O)(c3cc4c(c(-c5ccc(F)cc5)n3)OC[C@]4(C)C(N)=O)C(F)(F)F)c2n1 [Example 358]	> 200
C[C@]1(C(N)=O)COc2c1cc([C@@](O)(CNC(=O)c1ccc3cc[nH]c3c1F)C(F)(F)F)nc2-c1ccc(F)cc1 [Example 359]	> 200
C[C@]1(C(N)=O)COc2c1cc([C@@](O)(CNC(=O)c1cccc3nccn13)C(F)(F)F)nc2-c1ccc(F)cc1 [Example 360]	> 200
Cc1ccn2c(C(=O)NC[C@](O)(c3cc4c(c(-c5ccc(F)cc5)n3)OC[C@]4(C)C(N)=O)C(F)(F)F)c(C)nc2c1 [Example 361]	> 200
Cc1cc[nH]c1C(=O)NC[C@](O)(c1cc2c(c(-c3ccc(F)cc3)n1)OC[C@]2(C)C(N)=O)C(F)(F)F [Example 362]	> 200
C[C@]1(C(N)=O)COc2c1cc([C@@](O)(CNC(=O)c1ccoc1)C(F)(F)F)nc2-c1ccc(F)cc1 [Example 363]	> 200
C[C@]1(C(N)=O)COc2c1cc([C@@](O)(CNC(=O)c1ccno1)C(F)(F)F)nc2-c1ccc(F)cc1 [Example 364]	> 200
C[C@]1(C(N)=O)COc2c1cc([C@@](O)(CNC(=O)c1cnc3[nH]cnc3c1)C(F)(F)F)nc2-c1ccc(F)cc1 [Example 365]	> 200
C[C@]1(C(N)=O)COc2c1cc([C@@](O)(CNC(=O)c1cccc3cc[nH]c13)C(F)(F)F)nc2-c1ccc(F)cc1 [Example 366]	< 200
C[C@]1(C(N)=O)COc2c1cc([C@@](O)(CNC(=O)c1cnc3ccc(F)cn13)C(F)(F)F)nc2-c1ccc(F)cc1 [Example 367]	> 200
C[C@]1(C(N)=O)COc2c1cc([C@@](O)(CNC(=O)c1cc3ccccc3s1)C(F)(F)F)nc2-c1ccc(F)cc1 [Example 368]	> 200
